Measured values from patent US20140105959A1, “METHOD AND DEVICE FOR REDUCING DERMAL FILLER ADVERSE EVENTS” (ALLERGAN, INC., priority 2012, published 2014).

Legend:
[1] = tested on: hairless rat skin; test: vasoconstriction in hairless rat skin after topical phenylephrine patch; assay type: in vivo
Source text: In certain embodiments, mechanisms are provided that are effective to actively enhance transport of vasoactive drugs across the skin (mechanisms will be referred to as “enhancers” in the rest of the invention). For example, in one embodiment of the invention, the method includes the step of treating a skin site selected for dermal filler administration with a mechanism effective to enhance drug delivery across the skin prior to treating the skin site with the device or compound containing the active agent effective to reduce or ameliorate the adverse event. For example, the mechanism, hereinafter sometimes referred to as “mechanical enhancer” may comprise a mechanical device capable of gently stripping of the superficial skin layers from the epidermis. For example, the mechanism may be an adhesive tape or abrasive surface. It has been discovered that use of such mechanisms increase phenylephrine diffusion through the skin and result in significant reduction in skin's vasoconstriction time (e.g. 5 minutes) by phenylephrine using the same patch device. In certain embodiments, it might be useful to apply the mechanism, enhancement device, after filler administration, preferably in devices where the vasoactive drug may interfere with safety and/or potency of fillers. […]

[2] = tested on: hairless rat skin; test: bruising after dermal filler administration at patch-treated versus untreated rat skin; assay type: in vivo; conditions: cotton fabric patch, phenylephrine 400 ppm, 15 minutes, then dermal filler, compared with adjacent untreated skin
[3] = tested on: nasolabial folds; test: visible bruising after Juvederm XC injection into patch-treated nasolabial folds of a patient; assay type: in vivo, human; conditions: microneedle roller pretreatment, cotton-based patch about 300 ppm phenylephrine for about 7 minutes, then 0.6 cc Juvederm XC per nasolabial fold
Method: Their physician applies, along both nasolabial folds, a tool having a rolling head with numerous microneedles to penetrate the dermis with numerous punctures about one millimeter in depth. They then apply a phenylephrine-containing cotton-based patch, formulated to about 300 ppm phenylephrine, in accordance with the invention, on the skin along the left nasolabial fold, in a way that covers the entire injection site. The patch is left in place for about 7 minutes. The physician removes the patch and then carefully injects 0.6 cc of a HA-based dermal filler, specifically, Juvederm® XC, (available from Allergan, Inc., Irvine, Calif.) into the phenylephrine-treated dermis just beneath the fold line, using a 27 gauge needle. The treatment procedure is repeated for the right nasolabial fold, for example, using another identical patch and another 0.6 cc Juvederm® XC.

SMILES: CNC[C@H](O)c1cccc(O)c1 [phenylephrine]
- vasoconstriction in skin regions directly underneath the patch ([1]; cotton fabric patch, phenylephrine 400 ppm, removed after 15 minutes, hairless rat): significant vasoconstriction
- time to release, diffuse and cause significant vasoconstriction ([1]; phenylephrine formulated at 100 ppm in a topically placed cotton gauze, hairless rat skin): about 10 minutes
- skin's vasoconstriction time ([1]; same patch device, after mechanical enhancer (adhesive tape or abrasive surface stripping superficial skin layers)): 5 min
- bruising at the vasoconstricted skin site, particularly along the line of injection [2]: lower than at the untreated skin site
- bruising one week after the procedure ([3]; one week): no bruising, nor red marks
- visible bruising three days after the treatment procedure ([3]; three days): does not notice any visible bruising
